Test [1] deals with T1, PDZ-domain of the protein AF6 (Homo sapiens, UniProt P55196).
T1 construct: The ubiquitarily 15N marked PDZ-domains of the proteins AF6; made in house
T1 sequence (P55196 1007-1093 limits assumed): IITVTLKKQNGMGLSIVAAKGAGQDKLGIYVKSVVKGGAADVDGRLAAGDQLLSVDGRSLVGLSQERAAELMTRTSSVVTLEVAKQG
As to the kind of experiment: 15N-HSQC NMR binding assay (chemical shift comparison with and without test ligand). As to conditions: for binding to the PDZ-domain of the protein AF6 (binding / non-binding): 8 to 10-fold molar excess of test ligand, 50 μM protein; for binding site occupation from backbone amide chemical shifts, compared with compound 1: 8 to 10-fold ligand excess, FIG. 8; for binding of compound with singly bound R3 compared with the doubly bound equivalent: singly vs doubly bound residue R3.
Source text: The chemical shifts are split up into the 2 categories “large (bold italics)” and “small (normal letters)”. From the shown amino acid residues, the binding site of a compound on the protein can be determined by color-highlighting the backbone amide atoms of this amino acid residues in the 3D protein structure of Table 1 and creating the largest common cut set of all these atoms on the protein surface.

Test [2] addresses T2, PDZ-domain of AF6 (Homo sapiens, UniProt P55196).
T2 construct: The ubiquitarily 15N marked PDZ-domains of the proteins AF6; made in house
T2 sequence (P55196 1007-1093 limits assumed): T1 sequence (P55196 1007-1093 limits assumed)
As to the kind of experiment: Kd determination by 15N-HSQC NMR titration. In kind it is binding. As to conditions: macroscopic (apparent) Kd ± statistical standard deviation of curve adaptation; 50 μM 15N protein, pH 6.5, 300 K. The protocol:
(§1) The ubiquitarily 15N marked PDZ-domains of the proteins AF6 [Boisguerin, P. et al., Chem. Biol. 11:449-459 (2004)] and Syntrophin [Schultz, J. et al., Nat Struct Biol., 5(1):19-24 (1998)] were prepared as described in the publications. For the NMR assay 50 μM 15N marked protein are mixed in a buffer of 20 mM Na phosphate pH 6.5, 50 mM NaCl and 10% d6-DMSO with a 8 to 10-fold molar excess of test ligand and a 15N-HSQC NMR spectrum is recorded at a temperature of 300 K on a Bruker DRX 600 MHz NMR spectrometer. Secondly, an identical comparison spectrum of protein in absence of test ligand is recorded. The NMR spectra are processed with the aid of the software XWIN-NMR and compared with each other with the aid of the software Sparky. […] Exemplarily is shown such a comparison of spectra for the PDZ-domain of AF6 in FIG. 7A and for the PDZ-domain of Syntrophin in FIG. 7B.
(§2) For the determination of equilibrium dissociation constants (in short: Kd values), a test ligand is added step-wise in increasing concentrations to 50 μM protein solution, and for each concentration step a 15N-HSQC NMR spectrum is recorded under the same conditions as described above. The average chemical shift of a resonance, d, is calculated according to the following equation from the NMR raw data: […]
(§3) wherein ΔH is the shift in ppm units along the 1H resonance axis, and ΔN is the shift in ppm units along the 15N resonance axis. The average shift, d, is drawn as a function of the concentration of the test ligand, and a binding curve results, to which is adapted the following mathematical equation:
(§4) wherein Lo is the total concentration of ligands, Po is the total concentration of protein and Kd is the Kd value. This equation describes the law of mass action of a reaction “protein+ligand=complex”.
(§5) With the aid of a software such as e.g. “Origin 5.0”, the adaptation is optimized in a non-linear manner, thereby providing for each investigated resonance a microscopic Kd value. From the mean value of all relevant microscopic Kd values, a macroscopic Kd value is calculated. In Table 2, the macroscopic Kd values including the statistical standard deviation for the binding of some test ligands to the PDZ-domains of AF6 and of Syntrophin are shown.
(§6) The number behind the ± symbol indicates the statistical standard deviation of a mathematical curve adaptation to the chemical binding equation “protein+ligand=complex”.

The target in test [3] is T3, PDZ-domain of Syntrophin (Mus musculus, UniProt Q61234).
T3 construct: made in house
T3 sequence (Q61234 81-164 limits assumed): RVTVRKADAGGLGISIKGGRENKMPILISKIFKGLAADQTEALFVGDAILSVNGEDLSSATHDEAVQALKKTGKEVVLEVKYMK
Nature of the test: Kd determination by 15N-HSQC NMR titration. In kind it is binding. As to conditions: macroscopic (apparent) Kd ± statistical standard deviation of curve adaptation; 50 μM 15N protein, pH 6.5, 300 K. The protocol: as §1, §2, §3, §4, §5, §6

Entries after “also recorded” stand apart in the source; their conditions may differ.

The text below walks through data of patent US20090204336A1, “PDZ-Domain Modulators” (Forschungsverbund Berlin e. V., priority 2005, published 2009).

Take `O=C1NC(=S)SC1=Cc1cccc(C(F)(F)F)c1` [Compound 14]: in test [1], the “binding to the PDZ-domain of the protein AF6 (binding / non-binding)” value (shortened to “binding … (binding / non-binding)”) is on record as “binding”.

With `O=C1NC(=S)SC1=Cc1ccc(-c2ccccc2)cc1` [Compound 30], in test [1], the “binding … (binding / non-binding)” value is given as “non-binding; also recorded: do not show any binding”.

As for `O=C1NC(=S)SC1Cc1ccc(Br)cc1` (centres unmarked) [Compound 2], the “binding … (binding / non-binding)” value in test [1] was “particularly strong activity”.

For the compound `O=C1NC(=NCCCc2ccccc2)SC1=Cc1ccc(C(F)(F)F)cc1` [Compound 40], the “binding … (binding / non-binding)” value in test [1] is recorded as “non-binding”.

For the compound `O=C1NC(=S)SC1Cc1ccsc1` (centres unmarked) [Compound 5], the “binding … (binding / non-binding)” value in test [1] is reported as “show a binding”.

Consider `O=c1[nH]c2c(Cl)c(Cl)c(Cl)cc2o1` [II], for which the Kd worked out at 480 ± 33 µM in test [2] and 398 ± 32 µM in test [3].

As for `CC(c1ccc(C(F)(F)F)cc1)C1SC(=S)NC1=O` (centres unmarked) [Compound 6], the “binding … (binding / non-binding)” value in test [1] was “particularly strong activity”.

In the case of `O=C(O)c1cccc([N+](=O)[O-])c1O` [Compound 46], the “binding site occupation from backbone amide chemical shifts, compared with compound 1” value in test [1] is “does not or only insufficiently occupy the binding sites L25 to V28 and S75 to T91”.

`O=C(O)c1cc2cc(Br)ccc2c(Br)c1O` [Compound 41]: in test [2], the Kd turned out to be 419 ± 30 µM.

Consider `O=C1NC(=S)SC1Cc1cccc(C(F)(F)F)c1` (centres unmarked) [Compound 26], for which the “binding of compound with singly bound R3 compared with the doubly bound equivalent” value in test [1] is listed as “weaker binding”.

As to `CN1C(=O)C(=Cc2cccc(C(F)(F)F)c2)SC1=S` [Compound 32], the “binding … (binding / non-binding)” value in test [1] is on record as “non-binding”.

Take `CN(C)CCN=C1NC(=O)C(=Cc2ccc(C(F)(F)F)cc2)S1` [Compound 39]: in test [1], the “binding … (binding / non-binding)” value is on record as “non-binding”.

As to `O=C1NC(=S)SC1=Cc1ccsc1` [Compound 13], the “binding … (binding / non-binding)” value in test [1] is “binding”.

As for `CC(C)C=C1SC(=O)NC1=O` [Compound 21], in test [1], the “binding site occupation from backbone amide chemical shifts, compared with compound 1” value is “missing occupation of the partial binding site of the trifluoromethylphenyl residue” and the “binding … (binding / non-binding)” value was “show a binding”.

For `O=C1NC(=O)C(Cc2ccc(C(F)(F)F)cc2)S1` (centres unmarked) [Compound 7], the “binding … (binding / non-binding)” value in test [1] is “particularly strong activity”. In addition, the figures for the Kd in test [2] and in test [3] were 280 ± 22 µM and 330 ± 17 µM, respectively.

In the case of `CN1C(=O)C(=Cc2ccc(C(F)(F)F)cc2)SC1=S` [Compound 31], in test [1], the “binding … (binding / non-binding)” value is “non-binding”.

As to `O=C1NC(=S)SC1Cc1ccc(C(F)(F)F)cc1` (centres unmarked) [Compound 1], in test [1], the “binding … (binding / non-binding)” value is reported as “show a binding; also recorded: particularly strong activity” and the “binding of compound with singly bound R3 compared with the doubly bound equivalent” value is reported as “stronger binding”. Also, in test [2], the Kd was found to be 101 µM. For the same compound, the Kd in test [3] turned out to be 239 ± 12 µM.

Consider `NC1=NC(=O)C(=Cc2ccsc2)S1` [Compound 38], for which the “binding … (binding / non-binding)” value in test [1] is listed as “non-binding”.

For the compound `O=C1NC(=S)SC1=Cc1c[nH]c2ccccc12` [Compound 29], the “binding … (binding / non-binding)” value in test [1] was “non-binding; also recorded: do not show any binding”.

Turning to `O=C1NC(=S)SC1Cc1ccoc1` (centres unmarked) [Compound 4], in test [1], the “binding … (binding / non-binding)” value is recorded as “show a binding”.

`O=C1NC(=S)SC1Cc1ccccc1` (centres unmarked) [Compound 3]: in test [1], the “binding … (binding / non-binding)” value is recorded as “show a binding”.

As to `O=C1NC(=S)SC1=Cc1ccc(C(F)(F)F)cc1` [Compound 9], the “binding … (binding / non-binding)” value in test [1] is “binding; also recorded: particularly strong activity”.
